Consider eleven compounds from US10035790B2, “RORγ modulators” (BRISTOL-MYERS SQUIBB COMPANY, priority 2012, dated 2018).

For the assay, the target named is T1, ligand binding domain of human RORγ (A262-S507) (Homo sapiens, UniProt P51449).
T1 construct: made in house; host or cells: E. coli
T1 sequence (P51449 262-507): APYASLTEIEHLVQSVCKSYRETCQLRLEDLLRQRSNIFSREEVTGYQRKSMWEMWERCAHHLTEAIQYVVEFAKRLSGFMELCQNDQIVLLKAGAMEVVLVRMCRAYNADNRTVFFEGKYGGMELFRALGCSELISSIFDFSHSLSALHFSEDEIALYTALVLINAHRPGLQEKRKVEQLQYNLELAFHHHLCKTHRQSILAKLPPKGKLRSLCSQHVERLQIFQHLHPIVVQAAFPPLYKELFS
Nature of the assay: General RORγ SPA binding assay (competition with [3H]25-hydroxycholesterol). Particulars: RORγ SPA binding assay, inhibition of [3H]25-hydroxycholesterol binding; read-out: IC50. The essentials: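 N-terminally His-tagged protein was expressed in E. coli and nickel-purified. Then 50 nM protein was preincubated with compound for 15 min at room temperature in PBS with 0.5% fatty acid free BSA, followed by radioligand for 15 min and copper His-tag SPA beads for 30 min. IC50 came from percent inhibition of binding.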
In general, IC50 refers to the midpoint of a concentration-inhibition curve. Regarding `CCNc1ncc(C(C)(O)COc2ccnc(C(F)(F)F)n2)c(C2CCN(C(=O)Nc3c(F)cccc3F)CC2)n1` (centres unmarked) [Compound D35, N-(2,6-Difluorophenyl)-4-[2-(ethylamino)-5-(1-hydroxy-1-methyl-2-{[2-(trifluoromethyl)pyrimidin-4-yl]oxy}ethyl)pyrimidin-4-yl]piperidine-1-carboxamide], the IC50 was 0.0148 µM. The result for `C/C(=N\Oc1ccnc(C(F)(F)F)n1)c1cnc(C)nc1C1CCN(C(=O)Nc2c(F)cccc2C(F)(F)F)CC1` [Compound B39, N-[2-Fluoro-6-(trifluoromethyl)phenyl]-4-{2-methyl-5-[(1E)-N-{[2-(trifluoromethyl)pyrimidin-4-yl]oxy}ethanimidoyl]pyrimidin-4-yl}piperidine-1-carboxamide] reads 0.0933 µM; that for `Cc1ncc(C(=O)NCCOc2ccccc2)c(C2CCN(C(=O)Cc3c(F)cccc3F)CC2)n1` [Compound A20, 4-(1-(2-(2,6-difluorophenyl)acetyl)piperidin-4-yl)-2-methyl-N-(2-phenoxyethyl)pyrimidine-5-carboxamide], 0.158 µM. As to `Cc1nc(N)nc(C2CCN(C(=O)Oc3cccc(F)c3)CC2)c1-c1nnc(-c2ccnc(C(F)(F)F)n2)o1` [Compound C55, 3-Fluorophenyl 4-(2-amino-6-methyl-5-{5-[2-(trifluoromethyl)pyrimidin-4-yl]-1,3,4-oxadiazol-2-yl}pyrimidin-4-yl)piperidine-1-carboxylate], the IC50 was 0.0192 µM.

Take `Cc1cc(C)cc(COC(C)(CO)c2cnc(C)nc2C2CCN(C(=O)Cc3c(F)cccc3F)CC2)c1` (centres unmarked) [Compound E4, 2-(2,6-difluorophenyl)-1-(4-(5-(2-((3,5-dimethylbenzyl)oxy)-1-hydroxypropan-2-yl)-2-methylpyrimidin-4-yl)piperidin-1-yl)ethanone]: the IC50 was determined as 0.0167 µM. The same measure for `Cc1cc(C)cc(C(=O)NCc2cnc(C)nc2C2CCN(C(=O)Cc3c(F)cccc3F)CC2)c1` [Compound K1, N-((4-(1-(2-(2,6-Difluorophenyl)acetyl)piperidin-4-yl)-2-methylpyrimidin-5-yl)methyl)-3,5-dimethylbenzamide]: 4.11 µM; for `Cc1cc(C)cc(COC(C)(COCC(O)CO)c2cnc(C)nc2C2CCN(C(=O)Cc3c(F)cccc3F)CC2)c1` (centres unmarked) [Compound E3, 2-(2,6-difluorophenyl)-1-(4-(5-(1-(2,3-dihydroxypropoxy)-2-((3,5-dimethylbenzyl)oxy)propan-2-yl)-2-methylpyrimidin-4-yl)piperidin-1-yl)ethanone]: 0.0062 µM. Take `CC(O)(COc1ccnc(C(F)(F)F)n1)c1cnc(OCC(F)F)nc1C1CCN(C(=O)Nc2c(F)cccc2F)CC1` (centres unmarked) [Compound D41, 4-{2-[(2,2-Difluoroethyl)oxy]-5-(1-hydroxy-1-methyl-2-{[2-(trifluoromethyl)pyrimidin-4-yl]oxy}ethyl)pyrimidin-4-yl}-N-(2,6-difluorophenyl)piperidine-1-carboxamide]: the IC50 came out at 0.101 µM. As for `Cc1cc(C)cc(CNC(=O)c2cnc(C)nc2C2CCN(C(=O)c3ncccc3Cl)CC2)c1` [Compound A33, 4-(1-(3-chloropicolinoyl)piperidin-4-yl)-N-(3,5-dimethylbenzyl)-2-methylpyrimidine-5-carboxamide], the IC50 was 1.95 µM. The result for `Cc1ncc(C(C)(O)CNc2ccnc(C(F)(F)F)n2)c(C2CCN(C(=O)Nc3c(F)cccc3F)CC2)n1` (centres unmarked) [Compound D17, N-(2,6-Difluorophenyl)-4-[5-(1-hydroxy-1-methyl-2-{[2-(trifluoromethyl)pyrimidin-4-yl]amino}ethyl)-2-methylpyrimidin-4-yl]piperidine-1-carboxamide] reads 0.0888 µM. With `O=C(NCc1ccc(Cl)c(Cl)c1)c1cnc(-c2ccccc2)nc1C1CCN(C(=O)Cc2c(F)cccc2F)CC1` [Compound A37, N-(3,4-dichlorobenzyl)-4-(1-(2-(2,6-difluorophenyl)acetyl)piperidin-4-yl)-2-phenylpyrimidine-5-carboxamide], the IC50 stood at 4.2 µM.
